Results: patent US6495524B1, “Benzo[b]pyran derivatives useful as external agents for the skin” (Pola Chemical Industries Inc., priority 1998, dated 2002)

What was measured:
[1] = system: mouse melanoma-derived cells B-16; test: Inhibitory activity against melanine synthesis; format: cell-based; conditions: for Inhibition Ratio (melanine synthesis) / Amount of Melanine: 4 days; for Amount of Melanine: mean ± SD of five flasks; for inhibitory activity against the melanine synthesis by melanocytes (in words): remarkable in concentrations of 0.0005 w/v% or more
Description: 3×10^4 cells of mouse melanoma-derived cells B-16 were inoculated in a plastic incubation flask (75 cm^3) and incubated in Eagle MEM medium containing 10% fetal bovine serum under the conditions of 5% CO2 and 37° C. Two days after the start of the incubation, the inulavosin obtained in Production Example 1 above, the acetylinulavosin obtained in Example 1, or the glucosylinulavosin obtained in Example 2 was added to the incubation flask so that its concentration in the medium became 5×10^−5 to 1×10^−3 (W/V%) as shown in Tables 1 to 3 below, and the incubation was continued for additional 4 days. After completion of the incubation, the medium was removed from the incubation flask and the flask was washed with equilibrium phosphate buffer solution (hereinafter referred as “PBS”). Thereafter, the cells adhered on the incubation flask were stripped off with a solution containing trypsin and EDTA and then the obtained mixture was centrifuged to collect the cells.
After washing the collected cells with PBS, 1N sodium hydroxide was added to the precipitate, and the mixture was heat-dissolved. After cooling, chloroform was added thereto and the mixture was stirred and centrifuged again. The resultant supernatant was measured for absorbance at 400 nm and the amount of melanine was obtained by a calibration curve prepared in advance using synthetic melanine. The amount of melanine was obtained as weight (μg) per 10^6 cells. In the experiments, five flasks were used for each concentration of the test samples.
Tables 1 to 3 show the results obtained as average values of five flasks together with standard deviations. Tables 1 to 3 show the results for inulavosin, acetylinulavosin, and glucosylinulavosin, respectively.
In addition, as a control, the amount of melanine was determined by conducting the same experiments as described above except that the compound represented by formula (I) was not added. From the amount of melanine in the absence of samples and the amount of melanine in the presence of a sample, there was obtained melanine synthesis inhibition ratio (R(%)) by the following equation. The amount of melanine in the equation was an average value obtained from five flasks.
R: Melanine synthesis inhibition ratio
A: Amount of melanine in the absence of samples
B: Amount of melanine in the presence of a sample

[2] = system: Pseudomonas aeruginosa; conditions: Heterocycles, Vol. 41, No. 9, 1923-1926 (1995); cited from earlier work
[3] = system: fish; conditions: Heterocycles, Vol. 41, No. 9, 1923-1926 (1995); cited from earlier work
[4] = system: Staphylococcus aureus; conditions: Heterocycles, Vol. 41, No. 9, 1923-1926 (1995); cited from earlier work

Structure (SMILES)	Inhibition Ratio (melanine synthesis) ([1]; 1 × 10^−3 W/V % in medium)	Amount of Melanine ([1]; 1 × 10^−3 W/V % in medium)	Inhibition Ratio (melanine synthesis) ([1]; 1 × 10^−4 W/V % in medium)	Amount of Melanine ([1]; 1 × 10^−4 W/V % in medium)	Inhibition Ratio (melanine synthesis) ([1]; 5 × 10^−4 W/V % in medium)	Amount of Melanine ([1]; 5 × 10^−4 W/V % in medium)	Inhibition Ratio (melanine synthesis) ([1]; 5 × 10^−5 W/V % in medium)	Amount of Melanine ([1]; 5 × 10^−5 W/V % in medium)	inhibitory activity against the melanine synthesis by melanocytes (in words) [1]	antibacterial activity [2]	fish toxin activity [3]	antibacterial activity [4]
CC(=O)Oc1cc(C)ccc1C1(C)CC(C)(C)c2ccc(C)cc2O1 (stereo not drawn) [Acetylinulavosin, 2′-acetoxy-2,4,4,7,4′-pentamethylflavan]	87.9%	0.39 ± 0.18 μg/10^6 cells	25.1%	2.42 ± 0.26 μg/10^6 cells	62.2%	1.22 ± 0.17 μg/10^6 cells	9.3%	2.93 ± 0.35 μg/10^6 cells	have inhibitory activity against the melanine synthesis by melanocytes	–	–	–
Cc1ccc(C2(C)CC(C)(C)c3ccc(C)cc3O2)c(O)c1 (stereo not drawn) [Inulavosin, 2′-hydroxy-2,4,4,7,4′-pentamethylflavan]	91.3%	0.28 ± 0.17 μg/10^6 cells	31.0%	2.23 ± 0.24 μg/10^6 cells	73.1%	0.87 ± 0.21 μg/10^6 cells	15.2%	2.74 ± 0.32 μg/10^6 cells	have inhibitory activity against the melanine synthesis by melanocytes	antibacterial activity	fish toxin activity	antibacterial activity
Cc1ccc2c(c1)OC(C)(c1ccc(C)cc1OC1O[C@H](CO)[C@@H](O)[C@H](O)[C@H]1O)CC2(C)C (stereo partly drawn) [Glucosylinulavosin, 2′-O-glucosyl-2,4,4,7,4′-pentamethylflavan]	80.8%	0.62 ± 0.15 μg/10^6 cells	22.0%	2.52 ± 0.23 μg/10^6 cells	58.2%	1.35 ± 0.17 μg/10^6 cells	6.5%	3.02 ± 0.33 μg/10^6 cells	have inhibitory activity against the melanine synthesis by melanocytes	–	–	–
